Reference: patent US20100168084A1, “Therapeutic compounds and related methods of use” (priority 2008, published 2010)
Read-outs that look alike come from different tables or passages of the source.

Target: T1, sirtuin protein (Homo sapiens, UniProt Q96EB6)
T1 sequence (Q96EB6 2-747 limits assumed): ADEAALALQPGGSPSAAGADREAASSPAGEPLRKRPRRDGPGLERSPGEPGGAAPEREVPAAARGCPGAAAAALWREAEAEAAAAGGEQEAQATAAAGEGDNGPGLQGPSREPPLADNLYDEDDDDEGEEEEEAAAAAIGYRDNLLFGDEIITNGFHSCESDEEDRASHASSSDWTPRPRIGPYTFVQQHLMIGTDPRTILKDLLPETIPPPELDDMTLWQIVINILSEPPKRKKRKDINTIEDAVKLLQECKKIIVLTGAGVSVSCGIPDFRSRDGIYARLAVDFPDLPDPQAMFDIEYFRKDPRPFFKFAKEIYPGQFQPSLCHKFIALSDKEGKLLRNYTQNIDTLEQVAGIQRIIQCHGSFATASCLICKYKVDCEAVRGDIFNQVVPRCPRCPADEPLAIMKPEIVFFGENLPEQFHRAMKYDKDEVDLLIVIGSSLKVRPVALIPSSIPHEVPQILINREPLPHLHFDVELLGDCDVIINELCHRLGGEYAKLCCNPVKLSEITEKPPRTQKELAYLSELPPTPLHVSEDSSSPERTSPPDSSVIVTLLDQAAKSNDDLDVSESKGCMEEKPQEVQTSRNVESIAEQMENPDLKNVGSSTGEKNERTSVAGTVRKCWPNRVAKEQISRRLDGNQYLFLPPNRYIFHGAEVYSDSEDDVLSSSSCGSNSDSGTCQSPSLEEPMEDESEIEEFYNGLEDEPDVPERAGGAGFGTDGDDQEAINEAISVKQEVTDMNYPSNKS
Experiment: MS assay (IC50 MS ASSAY / ED50 MS / FOLD ACTIVATION MS)
Assay type: biochemical
Set-up: scale not given here

[1] = MS assay, class symbols, key not given
[2] = Table 4, class symbols A′, A, B, C, NA, legend not given
[3] = MS assay, class symbols A′, A, B, D, NA, legend not given
[4] = Table 4, class symbols A′, A, B, D, NA, legend not given
[5] = class symbols (A′, A, B, D, NA), no legend given

O=C(Nc1ccccc1-c1nc2cc(CN3CCNCC3)cnc2s1)c1cc(-c2ccccc2)no1 [Compound 732]
A′: ED50 MS ASSAY | ED50 MS ASSAY [1] | ED50 MS ASSAY (TABLE 4) | ED50 MS ASSAY (Table 4) | ED50 MS ASSAY [2]

COc1cc(C(=O)Nc2ccccc2-c2nc3ccccc3[nH]2)cc(OC)c1OC [Compound 293]
A′: ED50 MS ASSAY [3] | ED50 MS ASSAY (Table 4) | ED50 MS ASSAY [4]

O=C(Nc1ccccc1-c1cn2c(CN3CCNCC3)csc2n1)c1c[nH]c2ccccc12 [Compound 510]
A′: ED50 MS ASSAY | ED50 MS ASSAY (Table 4) | ED50 MS ASSAY (Table 4, class symbols) | ED50 MS ASSAY [4] | ED50 MS ASSAY [5]

CN(C)c1cccc(C(=O)Nc2ccccc2-c2cn3ccccc3n2)c1 [Compound 268]
A′: ED50 MS ASSAY [3] | ED50 MS ASSAY (Table 4) | ED50 MS ASSAY [4]

COc1cc(C(=O)Nc2cccc(-c3cn4cccnc4n3)c2)cc(OC)c1OC [Compound 218]
A′: ED50 MS ASSAY (Table 4) | ED50 MS ASSAY [4] | ED50 MS ASSAY (class symbols, no key given)

COc1cc(OC)cc(C(=O)Nc2ccccc2-c2nc3cc(CN4CCNCC4)cnc3s2)c1 [Compound 589]
A′: ED50 MS ASSAY | ED50 MS ASSAY (Table 4) | ED50 MS ASSAY (Table 4, class symbols) | ED50 MS ASSAY [4] | ED50 MS ASSAY [5]

COc1cc(OC)cc(C(=O)Nc2ccc(-c3nc4ccncc4o3)s2)c1 [Compound 562]
A′: ED50 MS ASSAY | ED50 MS ASSAY (Table 4) | ED50 MS ASSAY (Table 4, class symbols) | ED50 MS ASSAY [4] | ED50 MS ASSAY [5]

COc1cc(C(=O)Nc2ccccc2-c2nc3ncccc3o2)ccc1CN1CCOCC1 [Compound 631]
A′: ED50 MS ASSAY | ED50 MS ASSAY (Table 4) | ED50 MS ASSAY (Table 4, class symbols) | ED50 MS ASSAY [4] | ED50 MS ASSAY [5]

COc1ccc(C(=O)Nc2ccccc2-c2nc3cccnc3[nH]2)cc1C(F)(F)F [Compound 528]
A′: ED50 MS ASSAY | ED50 MS ASSAY (Table 4) | ED50 MS ASSAY (Table 4, class symbols) | ED50 MS ASSAY [4] | ED50 MS ASSAY [5]

COc1cc(C(=O)Nc2ccccc2-c2nc3cnccc3s2)cc(OC)c1OC [Compound 319]
A′: ED50 MS ASSAY [3] | ED50 MS ASSAY (Table 4) | ED50 MS ASSAY [4]

CN1CCN(Cc2csc3nc(-c4ccccc4NC(=O)c4cnc5ccccc5n4)cn23)C(=O)C1 [Compound 741]
A′: ED50 MS ASSAY | ED50 MS ASSAY [1] | ED50 MS ASSAY (TABLE 4) | ED50 MS ASSAY (Table 4) | ED50 MS ASSAY [2]

O=C(Nc1ccccc1-c1nc2ccccc2[nH]1)c1cnc2ccccc2n1 [Compound 508]
A′: ED50 MS ASSAY | ED50 MS ASSAY (Table 4) | ED50 MS ASSAY (Table 4, class symbols) | ED50 MS ASSAY [4] | ED50 MS ASSAY [5]

COc1cc(C)ccc1C(=O)Nc1cccc(-c2nc3ncccc3s2)c1 [Compound 199]
A′: ED50 MS ASSAY (TABLE 4) | ED50 MS ASSAY (Table 4) | ED50 MS ASSAY (Table 4, class symbols, legend not given) | ED50 MS ASSAY (class symbols, no key given)

COc1ccc(C(=O)Nc2ccccc2-c2nc3cccnc3[nH]2)cc1OC [Compound 525]
A′: ED50 MS ASSAY | ED50 MS ASSAY (Table 4) | ED50 MS ASSAY (Table 4, class symbols) | ED50 MS ASSAY [4] | ED50 MS ASSAY [5]

O=C(Nc1ccccc1-c1cn2c(CN3CCNCC3)csc2n1)c1cnc2ccccc2n1 [Compound 441]
A′: ED50 MS ASSAY [3] | ED50 MS ASSAY (Table 4) | ED50 MS ASSAY [4]

O=C(Nc1ccccc1-c1cn2c(CN3CCNCC3)csc2n1)c1cccc(SC(F)F)c1 [Compound 737]
A′: ED50 MS ASSAY | ED50 MS ASSAY [1] | ED50 MS ASSAY (TABLE 4) | ED50 MS ASSAY (Table 4) | ED50 MS ASSAY [2]

CN(C)c1cccc(C(=O)Nc2ccc(-c3nc4cnccc4o3)s2)c1 [Compound 427]
A′: ED50 MS ASSAY [3] | ED50 MS ASSAY (Table 4) | ED50 MS ASSAY [4]

CN(C)c1cccc(C(=O)Nc2ccc(-c3nc4cnccc4s3)s2)c1 [Compound 518]
A′: ED50 MS ASSAY | ED50 MS ASSAY (Table 4) | ED50 MS ASSAY (Table 4, class symbols) | ED50 MS ASSAY [4] | ED50 MS ASSAY [5]
